# Measurements from patent US6620828B2, “Thiazole compounds and pharmaceutical compositions for inhibiting protein kinases and methods for their use” (Agouron Pharmaceuticals, Inc., priority 1999, dated 2003).
# pIC50, pKi: −log10 of the molar value. Values joined by “and” are separate entries in the source; they are usually repeats but may differ in a detail not shown here. Identical values can stand only once. Like-named read-outs stand apart in the source and are kept apart here.
# Assays:
# CDK2/Cyclin A complex = CDK2/Cyclin A complex (Homo sapiens, UniProt P24941); test: CDK2/Cyclin A assay; assay type: biochemical; details: for CDK2 % inhibition @ 10: at 10 (head μM)
# Summary of the method: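 Radiometric assay: 150 nM CDK2/cyclin A (insect-cell CDK2, truncated cyclin A) phosphorylates His-tagged Rb fragment (residues 386-928) with 25 μM ATP plus [32P]ATP, pH 7.4 HEPES, 2% DMSO, 30 °C for 20 min. Filter-captured product counted by phosphorimager; apparent Ki from competitive or tight-binding inhibition fits.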
# CDK4/Cyclin D3 complex = molecular target: T1, CDK4/Cyclin D3 complex (Homo sapiens, UniProt P11802); test: CDK4/Cyclin D assay; assay type: biochemical; details: for CDK4 % inhibition @ 10: at 10 (head μM)
# T1 construct: made in house; host or cells: insect cells co-infected with baculovirus vectors
# Summary of the method: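 Insect-cell-expressed CDK4/cyclin D3 (50 nM) phosphorylating His-tagged Rb fragment (residues 386-928) with 25 μM [^32P]ATP in HEPES pH 7.4, MgCl2, 2% DMSO; 20 min at 30 °C, EDTA stop. Filter-captured 32P by phosphorimager; apparent Ki from competitive or tight-binding inhibition fits.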
# [1] = molecular target: T2, phosphorylated VEGF-R2Δ50 (Homo sapiens, UniProt P35968, DEL940-989/E990V); test: VEGF-R2 ELISA assay; assay type: biochemical; details: * determined with ELISA assay, read-out: FLVK-P Ki
# T2 construct: VEGF-R2Δ50 contains residues 806-939 and 990-1171; made in house; host or cells: baculovirus/insect cells
# From the text: VEGF-R2 Construct for Assay: This construct determines the ability of a test compound to inhibit tyrosine kinase activity. A construct (VEGF-R2Δ50) of the cytosolic domain of human vascular endothelial growth factor receptor 2 (VEGF-R2) lacking the 50 central residues of the 68 residues of the kinase insert domain was expressed in a baculovirus/insect cell system. Of the 1356 residues of full-length VEGF-R2, VEGF-R2Δ50 contains residues 806-939 and 990-1171, and also one point mutation (E990V) within the kinase insert domain relative to wild-type VEGF-R2. Autophosphorylation of the purified construct was performed by incubation of the enzyme at a concentration of 4 μM in the presence of 3 mM ATP and 40 mM MgCl2 in 100 mM Hepes, pH 7.5, containing 5% glycerol and 5 mM DTT, at 4° C. for 2 h. […] See Parast et al., Biochemistry, 37, 16788-16801 (1998).
# Formation of phosphogastrin was monitored using biotinylated gastrin peptide (1-17) as substrate. Biotinylated phosphogastrin was immobilized using streptavidin coated 96-well microtiter plates followed by detection using anti-phosphotyrosine-antibody conjugated to horseradish peroxidase. The activity of horseradish peroxidase was monitored using 2,2′-azino-di-[3-ethylbenzathiazoline sulfonate(6)]diammonium salt (ABTS). Typical assay solutions contained: 2 μM biotinylated gastrin peptide; 5 mM DTT; 20 μM ATP; 26 mM MgCl2; and 2 mM MnCl2 in 200 mM Hepes, pH 7.5. The assay was initiated with 0.8 nM of phosphorylated VEGF-R2Δ50. Horseradish peroxidase activity was assayed using ABTS, 10 mM. The horseradish peroxidase reaction was quenched by addition of acid (H2SO4), followed by absorbance reading at 405 nm. Ki values were determined by measuring enzyme activity in the presence of varying concentrations of test compounds. The data were analyzed using Enzyme Kinetic and Kaleidagraph software.
# CHK1 = molecular target: T3, CHK1 (Homo sapiens, UniProt O14757); test: CHK1 high-throughput screening; assay type: biochemical; details: for inhibition at 20 µM: read-out: % inhibition @ 20 μM, Table 4, repeated entries per example; for % inhibition @ 20 μM: Table 4, repeated entries per example
# T3 sequence (O14757 1-476): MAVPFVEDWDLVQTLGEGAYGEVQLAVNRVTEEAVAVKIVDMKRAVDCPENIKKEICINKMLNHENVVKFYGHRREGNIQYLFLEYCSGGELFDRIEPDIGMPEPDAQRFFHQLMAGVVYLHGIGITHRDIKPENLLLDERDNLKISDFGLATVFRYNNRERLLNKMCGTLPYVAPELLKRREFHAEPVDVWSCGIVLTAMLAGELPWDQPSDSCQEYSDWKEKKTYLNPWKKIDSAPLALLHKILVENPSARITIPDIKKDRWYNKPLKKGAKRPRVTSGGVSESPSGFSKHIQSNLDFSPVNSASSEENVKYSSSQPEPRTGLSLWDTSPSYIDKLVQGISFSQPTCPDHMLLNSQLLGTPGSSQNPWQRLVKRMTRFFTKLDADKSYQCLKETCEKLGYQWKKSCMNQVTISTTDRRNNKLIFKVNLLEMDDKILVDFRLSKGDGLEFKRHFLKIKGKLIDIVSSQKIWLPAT
# [2] = molecular target: T4, phosphorylated VEGF-R2Δ50 (FLVK-P) (Homo sapiens, UniProt P35968, DEL940-989/E990V); test: VEGF-R2 coupled spectrophotometric (FLVK-P) assay; assay type: biochemical; details: spectrophotometric assay
# T4 construct: VEGF-R2Δ50 contains residues 806-939 and 990-1171; made in house; host or cells: baculovirus/insect cells
# Summary of the method: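 Baculovirus-expressed human VEGF-R2Δ50 (residues 806-939/990-1171, E990V) was autophosphorylated with 3 mM ATP, 40 mM MgCl2 for 2 h at 4° C. ADP formation was coupled via PK/LDH to NADH oxidation, read at 340 nm, with 5.1 mM poly(E4Y1), 1 mM ATP, 25 mM MgCl2, Hepes pH 7.5. Ki came from activity across compound concentrations.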
# FL-CHK1 = molecular target: T5, FL-CHK1 (Homo sapiens, UniProt O14757); test: CHK1 assay; assay type: biochemical; details: Table 2; at 5 (head μM)
# T5 construct: C-terminally His-tagged full-length human CHK1 (FL-CHK1); 6xHis (C); made in house; host or cells: baculovirus/insect cells
# T5 sequence (O14757 1-476): T3 sequence (O14757 1-476)
# Summary of the method: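 Full-length human CHK1 with C-terminal 6×His tag, made in baculovirus/insect cells, 10 nM, phosphorylating 0.125 mM Syntide-2 with 0.15 mM ATP in 50 mM Tris pH 7.5, 25 mM MgCl2, 400 mM NaCl. PK/LDH-coupled NADH oxidation read at 340 nm. Ki from initial rates over varied compound concentrations.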
# [3] = molecular target: T6, unphosphorylated VEGF-R2Δ50 (FLVK) (Homo sapiens, UniProt P35968, DEL940-989/E990V); test: VEGF-R2 coupled spectrophotometric assay, unphosphorylated enzyme (FLVK); assay type: biochemical; details: Table 1
# T6 construct: VEGF-R2Δ50 contains residues 806-939 and 990-1171; made in house; host or cells: baculovirus/insect cells
# Summary of the method: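 Unphosphorylated VEGF-R2Δ50 (5 to 40 nM) with 20 mM poly(E4Y1), 3 mM ATP, 60 mM MgCl2, 2 mM MnCl2 in 200 mM Hepes pH 7.5. ADP production coupled via PK/LDH to NADH oxidation, read at 340 nm. Ki from activity at varying compound concentrations.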
# [4] = tested on: human umbilical vein endothelial cells (HUVEC); test: HUVEC proliferation assay; assay type: cell-based; details: Homo sapiens, HUVEC, Table 1
# Summary of the method: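 Readout was MTT dye reduction (A595) after 72 h of stimulation with VEGF at 6 ng/ml final. Compound, in 0.1% DMSO final, was added 1 h before VEGF to HUVEC starved 24 h in 1% FBS. % inhibition was scaled between VEGF-alone and unstimulated wells; IC50 was fitted from triplicate dose curves.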
# [5] = tested on: lung cancer cells (line MV522); test: Cancer cell proliferation (MV522) assay; assay type: cell-based; details: MV522, Table 1
# FGF-R1 = molecular target: T7, FGF-R1 (Homo sapiens, UniProt P11362, C488A/C584S/L457V); test: FGF-R spectrophotometric assay; assay type: biochemical; details: Table 2
# T7 construct: starting from the endogenous methionine residue 456 to glutamate 766; made in house; host or cells: baculovirus vector expression system
# Procedure: FGF-R1 Construct for Assay: The intracellular kinase domain of human FGF-R1 was expressed using the baculovirus vector expression system starting from the endogenous methionine residue 456 to glutamate 766, according to the residue numbering system of Mohammadi et al., Mol. Cell. Biol., 16, 977-989 (1996). In addition, the construct also has the following 3 amino acid substitutions: L457V, C488A, and C584S.
# The spectrophotometric assay was carried out as described above for VEGF-R2, except for the following changes in concentration: FGF-R=50 nM, ATP=2 mM, and poly(E4Y1)=15 mM.
# T1 sequence (P11802 whole entry): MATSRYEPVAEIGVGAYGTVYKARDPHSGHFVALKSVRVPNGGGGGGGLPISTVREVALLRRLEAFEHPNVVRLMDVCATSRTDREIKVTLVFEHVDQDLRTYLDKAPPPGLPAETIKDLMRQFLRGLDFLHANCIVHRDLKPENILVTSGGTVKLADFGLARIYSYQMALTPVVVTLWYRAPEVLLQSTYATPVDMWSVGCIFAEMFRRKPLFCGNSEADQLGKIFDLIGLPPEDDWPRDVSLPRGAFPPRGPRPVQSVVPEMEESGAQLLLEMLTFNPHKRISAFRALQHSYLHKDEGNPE
# T1 sequence (P30281 whole entry partner): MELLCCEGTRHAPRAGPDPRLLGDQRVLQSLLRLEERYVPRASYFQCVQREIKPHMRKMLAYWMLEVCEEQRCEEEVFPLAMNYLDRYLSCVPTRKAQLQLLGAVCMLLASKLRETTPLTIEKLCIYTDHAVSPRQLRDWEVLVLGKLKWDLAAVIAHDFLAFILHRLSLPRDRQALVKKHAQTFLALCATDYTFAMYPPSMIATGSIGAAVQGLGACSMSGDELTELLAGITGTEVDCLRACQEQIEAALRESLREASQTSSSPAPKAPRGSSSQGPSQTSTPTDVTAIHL
# T2 sequence (P35968 with tags, fused parts or gaps DEL940-989/E990V limits assumed): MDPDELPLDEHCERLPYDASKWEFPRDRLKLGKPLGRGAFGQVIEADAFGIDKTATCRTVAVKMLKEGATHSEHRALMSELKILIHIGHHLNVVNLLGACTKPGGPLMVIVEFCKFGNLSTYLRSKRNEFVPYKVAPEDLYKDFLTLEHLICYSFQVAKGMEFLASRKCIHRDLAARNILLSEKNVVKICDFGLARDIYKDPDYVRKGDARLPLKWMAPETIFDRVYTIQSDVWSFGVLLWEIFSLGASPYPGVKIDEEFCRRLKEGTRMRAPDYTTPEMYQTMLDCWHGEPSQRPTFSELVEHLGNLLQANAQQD
# T4 sequence (P35968 with tags, fused parts or gaps DEL940-989/E990V limits assumed): as above
# T6 sequence (P35968 with tags, fused parts or gaps DEL940-989/E990V limits assumed): as above
# T7 sequence (P11362 456-766 L457V/C488A/C584S): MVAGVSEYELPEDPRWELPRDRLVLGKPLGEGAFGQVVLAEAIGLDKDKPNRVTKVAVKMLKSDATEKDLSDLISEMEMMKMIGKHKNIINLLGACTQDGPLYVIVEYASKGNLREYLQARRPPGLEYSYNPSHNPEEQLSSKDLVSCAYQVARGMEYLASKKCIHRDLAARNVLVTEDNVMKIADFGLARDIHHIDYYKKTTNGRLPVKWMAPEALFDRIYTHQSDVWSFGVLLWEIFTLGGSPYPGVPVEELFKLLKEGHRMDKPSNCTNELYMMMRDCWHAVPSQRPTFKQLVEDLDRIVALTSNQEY
smiles,measurement,setting,value
"Nc1nc(Nc2ccc(S(N)(=O)=O)cc2)sc1-c1nc(-c2ccc(F)cc2F)cs1 [A(4), 4-[4′-Amino-4-(2,4-difluoro-phenyl)-[2,5′]bithiazolyl-2′-ylamino]-benzenesulfonamide]",CDK2 % inhibition @ 10,CDK2/Cyclin A complex; Table 2,57% @
same,CDK4 % inhibition @ 10,CDK4/Cyclin D3 complex; Table 2,42% @
same,melting point,,233 to 238 °C
"Nc1nc(Nc2ccc(S(N)(=O)=O)cc2)sc1-c1nc(-c2ccc(F)cc2)cs1 [A(5), 4-[4′-Amino-4-(4-fluoro-phenyl)-[2,5′]bithiazolyl-2′-ylamino]-benzenesulfonamide]",CDK2 % inhibition @ 10,CDK2/Cyclin A complex; Table 2,27% @
same,CDK4 % inhibition @ 10,CDK4/Cyclin D3 complex; Table 2,30% @
same,melting point,,254 to 257 °C
"Nc1nc(Nc2ccc(S(N)(=O)=O)cc2)sc1-c1nc(-c2ccc(Cl)cc2Cl)cs1 [A(6), 4-[4′-Amino-4-(2,4-dichloro-phenyl)-[2,5′]bithiazolyl-2′-ylamino]-benzenesulfonamide]",CDK2 % inhibition @ 10,CDK2/Cyclin A complex; Table 2,36% @
same,CDK4 % inhibition @ 10,CDK4/Cyclin D3 complex; Table 2,54% @
same,melting point,,173 to 175 °C (dec.)
"Cc1c(F)cc(-c2csc(-c3sc(Nc4ccc(S(N)(=O)=O)cc4)nc3N)n2)cc1Cl [A(7), 4-[4′-Amino-4-(3-chloro-5-fluoro-4-methyl-phenyl)-[2,5′]bithiazolyl-2′-ylamino]-benzenesulfonamide]",CDK2 % inhibition @ 10,CDK2/Cyclin A complex; Table 2,25% @
same,CDK4 % inhibition @ 10,CDK4/Cyclin D3 complex; Table 2,28% @
same,melting point,,208 to 212 °C
"Nc1nc(Nc2ccc(S(N)(=O)=O)cc2)sc1-c1nc(-c2cccc(C(=O)O)c2)cs1 [A(21), 3-[4′-Amino-2′-(4-sulfamoyl-phenylamino)-[2,5′]bithiazolyl-4-yl]-benzoic acid]",pKi,[1]; Table 2,5.06
same,pKi,CDK2/Cyclin A complex; Table 2,5.09
same,pKi,CDK4/Cyclin D3 complex; Table 2,4.35
same,inhibition at 20 µM,CHK1,-7.2%
"COc1cc(Nc2nc(N)c(-c3nc(-c4ccc(Cl)c(O)c4)cs3)s2)cc(OC)c1OC [A(22), 5-[4′-Amino-2′-(3,4,5-trimethoxy-phenylamino)-[2,5′]bithiazolyl-4-yl]-2-chloro-phenol]",pKi,[2]; Table 2,7.68
same,CHK-1 % inhibition @ 5,FL-CHK1,54% @
same,inhibition at 20 µM,CHK1,7.5%
same,melting point,,235 to 238 °C
"Cc1ccc(-c2csc(-c3sc(Nc4ccc(S(N)(=O)=O)cc4)nc3N)n2)cc1 [A(24), 4-(4′-Amino-4-p-tolyl-[2,5′]bithiazolyl-2′-ylamino)-benzenesulfonamide]",pKi,[1]; Table 2,5.26
same,pKi,CDK2/Cyclin A complex; Table 2,5.47
same,CDK4 % inhibition @ 10,CDK4/Cyclin D3 complex; Table 2,64% @
same,inhibition at 20 µM,CHK1,13.3%
"Nc1nc(Nc2ccc(S(N)(=O)=O)cc2)sc1-c1nc(-c2cc(O)cc(OCc3ccccc3)c2)cs1 [A(61), 4-[4′-Amino-4-(3-benzyloxy-5-hydroxy-phenyl)-[2,5]bithiazolyl-2′-ylamino]-benzenesulfonamide]",pKi,CDK2/Cyclin A complex; Table 2,5.57
same,melting point,,185 to 187 °C (dec.)
"Nc1nc(Nc2ccc(S(N)(=O)=O)cc2)sc1-c1nc(/C=C/c2ccccc2)cs1 [A(63), 4-(4′-Amino-4-styryl-[2,5′]bithiazolyl-2′-ylamino)-benzenesulfonamide]",pKi,CDK2/Cyclin A complex; Table 2,5.70
same,pKi,CDK4/Cyclin D3 complex; Table 2,4.70
same,% inhibition @ 20 μM,CHK1,3.8% and 5.4% and 9.8%
same,melting point,,140 to 143 °C (dec.)
"Nc1nc(Nc2ccc(S(N)(=O)=O)cc2)sc1-c1nc(/C=C/c2ccc(O)cc2)cs1 [A(64), 4-{4′-Amino-4-[2-(4-hydroxy-phenyl)-vinyl]-[2,5′]bithiazolyl-2′-ylamino}-benzenesulfonamide]",pKi,CDK2/Cyclin A complex; Table 2,6.28
same,% inhibition @ 20 μM,CHK1,1.1% and 7.2% and 8.3%
same,melting point,,138 to 140 °C (dec.)
COc1cc(Nc2nc(N)c(-c3nc(-c4cccc(N)c4)cs3)s2)cc(OC)c1OC [C(1)],pKi,[1]; Table 1,6.52
same,melting point,,205 to 210 °C (dec.)
COc1cc(Nc2nc(N)c(-c3nc(-c4cccc(NC(=O)c5ncc(C)s5)c4)no3)s2)cc(OC)c1OC [D(51)],pKi,[3],9.21
same,pKi,[1]; Table 1,7.49
same,pIC50,[4],7.40
same,pIC50,[5],< 5.00
"Nc1nc(N)c(-c2nc(-c3cccc(NC(=O)c4ccccc4)c3)cs2)s1 [E(2), N-[3-(2 ′,4′-Diamino-[2,5′]bithiazolyl-4-yl)-phenyl]benzamide]",pKi,[2]; Table 1,6.41
same,pKi,[3],7.42
same,melting point,,159 to 163 °C (dec.)
"COc1cc(Nc2nc(N)c(C3=NC(c4ccccc4)CO3)s2)cc(OC)c1OC (centres unmarked) [I(6), S-5-(4-Phenyl-4,5-dihydro-oxazol-2-yl)-N^2-(3,4,5-trimethoxyl-phenyl)-thiazole-2,4-diamine]",pKi,[2]; Table 2,7.00
same,pKi,FGF-R1,4.66
"CON(C)C(=O)c1csc(-c2sc(Nc3ccc(S(N)(=O)=O)cc3)nc2N)n1 [N(3), 4′-Amino-2′-(4-sulfamoyl-phenylamino)-[2,5′]bithiazolyl-4-carboxylic acid methoxy-methyl-amide]",pKi,CDK2/Cyclin A complex; Table 3,7.00
same,pKi,CDK4/Cyclin D3 complex; Table 3,5.96
same,melting point,,195 to 198 °C
